Results from patent US9885088B2, “Rapid phenotypic diagnosis of pathogens and drug resistance using transcriptional expression signatures” (priority 2010, dated 2018).
In brackets after ≈: the same amount, converted by molar mass. Like-named read-outs stand apart in the source and are kept apart here.

Experiments:
M. tuberculosis [1] = experiment: microbe, parasite or virus in culture; format: cell-based
E. coli [2] = format: cell-based; details: wild-type E. coli K-12, 10-30 minute exposure
E. coli [3] = experiment: microbe, parasite or virus in culture; format: cell-based
M. tuberculosis [4] = format: cell-based
M. tuberculosis [5] = details: M. tuberculosis after drug exposure, cited from earlier work; for Magnitude of induction/repression in prior microarray-based assays, RV1570 bioD: gene RV1570 (bioD); for Magnitude of induction/repression in prior microarray-based assays, RV1570 bioD / Magnitude of induction/repression in prior microarray-based assays, RV1606 hisI / Magnitude of induction/repression in prior microarray-based assays, Rv0984 moaB2 / Magnitude of induction/repression in prior microarray-based assays, Rv2296 haloalkane / Magnitude of induction/repression in prior microarray-based assays, Rv2364c era: purpose RIF; for Magnitude of induction/repression in prior microarray-based assays, RV1606 hisI: gene RV1606 (hisI); for Magnitude of induction/repression in prior microarray-based assays, RV3675: gene RV3675 (Rv3675); for Magnitude of induction/repression in prior microarray-based assays, RV3675 / Magnitude of induction/repression in prior microarray-based assays, Rv2245 kasA / Magnitude of induction/repression in prior microarray-based assays, Rv2247 accD6 / Magnitude of induction/repression in prior microarray-based assays, Rv2846c efpA / Magnitude of induction/repression in prior microarray-based assays, Rv3801c fadD32: purpose INH; for Magnitude of induction/repression in prior microarray-based assays, Rv0055 rpsR: gene Rv0055 (rpsR); for Magnitude of induction/repression in prior microarray-based assays, Rv0055 rpsR / Magnitude of induction/repression in prior microarray-based assays, Rv1317c alkA / Magnitude of induction/repression in prior microarray-based assays, Rv2737c recA / Magnitude of induction/repression in prior microarray-based assays, Rv2790c ltp1 / Magnitude of induction/repression in prior microarray-based assays, Rv3296 lhr: purpose FQ; for Magnitude of induction/repression in prior microarray-based assays, Rv0667 rpoB: gene Rv0667 (rpoB); for Magnitude of induction/repression in prior microarray-based assays, Rv0667 rpoB / Magnitude of induction/repression in prior microarray-based assays, Rv1980c mpt64 / Magnitude of induction/repression in prior microarray-based assays, Rv2703 sigA / Magnitude of induction/repression in prior microarray-based assays, Rv3583c: purpose control; for Magnitude of induction/repression in prior microarray-based assays, Rv0813c CHP: gene Rv0813c (CHP); for Magnitude of induction/repression in prior microarray-based assays, Rv0813c CHP / Magnitude of induction/repression in prior microarray-based assays, Rv1511 gmdA / Magnitude of induction/repression in prior microarray-based assays, Rv1608c bcpB / Magnitude of induction/repression in prior microarray-based assays, Rv1832 gcvB / Magnitude of induction/repression in prior microarray-based assays, Rv3417c groEL: purpose SM; for Magnitude of induction/repression in prior microarray-based assays, Rv0984 moaB2: gene Rv0984 (moaB2); for Magnitude of induction/repression in prior microarray-based assays, Rv1317c alkA: gene Rv1317c (alkA); for Magnitude of induction/repression in prior microarray-based assays, Rv1511 gmdA: gene Rv1511 (gmdA); for Magnitude of induction/repression in prior microarray-based assays, Rv1608c bcpB: gene Rv1608c (bcpB); for Magnitude of induction/repression in prior microarray-based assays, Rv1832 gcvB: gene Rv1832 (gcvB); for Magnitude of induction/repression in prior microarray-based assays, Rv1980c mpt64: gene Rv1980c (mpt64); for Magnitude of induction/repression in prior microarray-based assays, Rv2245 kasA: gene Rv2245 (kasA); for Magnitude of induction/repression in prior microarray-based assays, Rv2247 accD6: gene Rv2247 (accD6); for Magnitude of induction/repression in prior microarray-based assays, Rv2296 haloalkane: gene Rv2296 (haloalkane); for Magnitude of induction/repression in prior microarray-based assays, Rv2364c era: gene Rv2364c (era); for Magnitude of induction/repression in prior microarray-based assays, Rv2703 sigA: gene Rv2703 (sigA); for Magnitude of induction/repression in prior microarray-based assays, Rv2737c recA: gene Rv2737c (recA); for Magnitude of induction/repression in prior microarray-based assays, Rv2790c ltp1: gene Rv2790c (ltp1); for Magnitude of induction/repression in prior microarray-based assays, Rv2846c efpA: gene Rv2846c (efpA); for Magnitude of induction/repression in prior microarray-based assays, Rv3296 lhr: gene Rv3296 (lhr); for Magnitude of induction/repression in prior microarray-based assays, Rv3417c groEL: gene Rv3417c (groEL); for Magnitude of induction/repression in prior microarray-based assays, Rv3583c: gene Rv3583c; for Magnitude of induction/repression in prior microarray-based assays, Rv3801c fadD32: gene Rv3801c (fadD32)
[6] = E. coli clinical isolate CIEC9955
[7] = Mycobacterium tuberculosis, H37RV

With `O=C(O)c1cn(C2CC2)c2cc(N3CCNCC3)c(F)cc2c1=O` [Ciprofloxacin] as the compound, how does the MIC (M. tuberculosis [1]) read?
The MIC was 16 µg/mL (≈ 48.3 µM).

Which results are given for Gentamicin?
changes in transcript levels (drug-susceptible expression signature) (E. coli [2]): expected changes in transcript levels; Sensitive (S) or Resistant (R) (E. coli [3]): S and R; MIC (E. coli [3]; E. coli clinical isolate CIEC1676): 8 µg/mL; MIC (E. coli [3]; E. coli clinical isolate CIEC1801): 8 µg/mL; MIC (E. coli [3]; E. coli clinical isolate CIEC2219): 125 µg/mL; MIC (E. coli [3]; E. coli clinical isolate CIEC4940): >250 µg/mL; MIC (E. coli [3]; E. coli clinical isolate CIEC9181): >250 µg/mL; MIC (E. coli [3]; [6]): 16 µg/mL; MIC (E. coli [3]; E. coli strain K12): 8 µg/mL

Which results are given for `CC1(C)S[C@@H]2[C@H](NC(=O)[C@H](N)c3ccccc3)C(=O)N2[C@H]1C(=O)O` [Ampicillin]?
changes in transcript levels (drug-susceptible expression signature) (E. coli [2]): expected changes in transcript levels; Sensitive (S) or Resistant (R) (E. coli [3]; [6]): R; Sensitive (S) or Resistant (R) (E. coli [3]; E. coli strain K12): S; MIC (E. coli [3]; Escherichia coli, E. coli clinical isolate CIEC0838, read-out: MIC): > 250 µg/mL; MIC (E. coli [3]; Escherichia coli, E. coli clinical isolate CIEC2219, read-out: MIC): > 250 µg/mL; MIC (E. coli [3]; Escherichia coli, E. coli clinical isolate CIEC9181, read-out: MIC): > 250 µg/mL; MIC (E. coli [3]; Escherichia coli, E. coli clinical isolate CIEC9955, read-out: MIC): > 250 µg/mL; MIC (E. coli [3]; Escherichia coli, E. coli strain DH5α, read-out: MIC): 8 µg/mL (≈ 22.9 µM); MIC (E. coli [3]; Escherichia coli, E. coli strain J53, read-out: MIC): 4 µg/mL (≈ 11.4 µM); MIC (E. coli [3]; Escherichia coli, E. coli strain K12, read-out: MIC): 4 µg/mL (≈ 11.4 µM)

For `NNC(=O)c1ccncc1` [Isoniazid], which “genes with drug-dependent induction” value (M. tuberculosis [4]) is on record?
The value was “kasA, fadD32, accD6, efpA, and Rv3675.1”.

What about the MIC (M. tuberculosis [1]; Mycobacterium tuberculosis, BAA812) of the same compound?
The MIC was 0.4 µg/mL (≈ 2.92 µM).

And the MIC (M. tuberculosis [1]; [7])?
The MIC was 0.05 µg/mL (≈ 0.365 µM).

For `CO[C@H]1/C=C/O[C@@]2(C)Oc3c(C)c(O)c4c(O)c(c(/C=N/N5CCN(C)CC5)c(O)c4c3C2=O)NC(=O)/C(C)=C\C=C\[C@H](C)[C@H](O)[C@@H](C)[C@@H](O)[C@@H](C)[C@H](OC(C)=O)[C@@H]1C` [Rifampin], which “genes with drug-dependent induction” value (M. tuberculosis [4]) is on record?
The value was “bioD, hisI, era, and Rv2296”.

Which results are given for `CO[C@H]1/C=C/O[C@@]2(C)Oc3c(C)c(O)c4c(O)c(c(/C=N/N5CCN(C)CC5)c(O)c4c3C2=O)NC(=O)/C(C)=C\C=C\[C@H](C)[C@H](O)[C@@H](C)[C@@H](O)[C@@H](C)[C@H](OC(C)=O)[C@@H]1C` [RIF]?
Magnitude of induction/repression in prior microarray-based assays, RV1570 bioD (M. tuberculosis [5]): 1.2; Magnitude of induction/repression in prior microarray-based assays, RV1606 hisI (M. tuberculosis [5]): 1.5; Magnitude of induction/repression in prior microarray-based assays, RV3675 (M. tuberculosis [5]): 0.0; Magnitude of induction/repression in prior microarray-based assays, Rv0055 rpsR (M. tuberculosis [5]): −0.9; Magnitude of induction/repression in prior microarray-based assays, Rv0667 rpoB (M. tuberculosis [5]): 0.1; Magnitude of induction/repression in prior microarray-based assays, Rv0813c CHP (M. tuberculosis [5]): 0.3; Magnitude of induction/repression in prior microarray-based assays, Rv0984 moaB2 (M. tuberculosis [5]): 1.7; Magnitude of induction/repression in prior microarray-based assays, Rv1317c alkA (M. tuberculosis [5]): 0.5; Magnitude of induction/repression in prior microarray-based assays, Rv1511 gmdA (M. tuberculosis [5]): −0.3; Magnitude of induction/repression in prior microarray-based assays, Rv1608c bcpB (M. tuberculosis [5]): 0.3; Magnitude of induction/repression in prior microarray-based assays, Rv1832 gcvB (M. tuberculosis [5]): −0.4; Magnitude of induction/repression in prior microarray-based assays, Rv1980c mpt64 (M. tuberculosis [5]): −1.2; Magnitude of induction/repression in prior microarray-based assays, Rv2245 kasA (M. tuberculosis [5]): −1.0; Magnitude of induction/repression in prior microarray-based assays, Rv2247 accD6 (M. tuberculosis [5]): −0.8; Magnitude of induction/repression in prior microarray-based assays, Rv2296 haloalkane (M. tuberculosis [5]): 1.2; Magnitude of induction/repression in prior microarray-based assays, Rv2364c era (M. tuberculosis [5]): 1.4; Magnitude of induction/repression in prior microarray-based assays, Rv2703 sigA (M. tuberculosis [5]): −1.4; Magnitude of induction/repression in prior microarray-based assays, Rv2737c recA (M. tuberculosis [5]): −0.6; Magnitude of induction/repression in prior microarray-based assays, Rv2790c ltp1 (M. tuberculosis [5]): −0.7; Magnitude of induction/repression in prior microarray-based assays, Rv2846c efpA (M. tuberculosis [5]): −0.9; Magnitude of induction/repression in prior microarray-based assays, Rv3296 lhr (M. tuberculosis [5]): 0.2; Magnitude of induction/repression in prior microarray-based assays, Rv3417c groEL (M. tuberculosis [5]): −0.9; Magnitude of induction/repression in prior microarray-based assays, Rv3583c (M. tuberculosis [5]): −1.8; Magnitude of induction/repression in prior microarray-based assays, Rv3801c fadD32 (M. tuberculosis [5]): −0.6

Which results are given for `[H]/N=C(/N)N[C@H]1[C@H](O)[C@@H](O)[C@H](O[C@@H]2O[C@@H](C)[C@](O)(C=O)[C@H]2O[C@@H]2O[C@@H](CO)[C@H](O)[C@@H](O)[C@@H]2NC)[C@@H](N/C(N)=N\[H])[C@@H]1O` [Streptomycin]?
Magnitude of induction/repression in prior microarray-based assays, RV1570 bioD (M. tuberculosis [5]): −0.3; Magnitude of induction/repression in prior microarray-based assays, RV1606 hisI (M. tuberculosis [5]): −0.4; Magnitude of induction/repression in prior microarray-based assays, RV3675 (M. tuberculosis [5]): 0.0; Magnitude of induction/repression in prior microarray-based assays, Rv0055 rpsR (M. tuberculosis [5]): 1.7; Magnitude of induction/repression in prior microarray-based assays, Rv0667 rpoB (M. tuberculosis [5]): 1.4; Magnitude of induction/repression in prior microarray-based assays, Rv0813c CHP (M. tuberculosis [5]): 3.8; Magnitude of induction/repression in prior microarray-based assays, Rv0984 moaB2 (M. tuberculosis [5]): −1.1; Magnitude of induction/repression in prior microarray-based assays, Rv1317c alkA (M. tuberculosis [5]): 0.4; Magnitude of induction/repression in prior microarray-based assays, Rv1511 gmdA (M. tuberculosis [5]): 1.6; Magnitude of induction/repression in prior microarray-based assays, Rv1608c bcpB (M. tuberculosis [5]): 2.2; Magnitude of induction/repression in prior microarray-based assays, Rv1832 gcvB (M. tuberculosis [5]): 1.3; Magnitude of induction/repression in prior microarray-based assays, Rv1980c mpt64 (M. tuberculosis [5]): 0.4; Magnitude of induction/repression in prior microarray-based assays, Rv2245 kasA (M. tuberculosis [5]): −1.9; Magnitude of induction/repression in prior microarray-based assays, Rv2247 accD6 (M. tuberculosis [5]): −0.8; Magnitude of induction/repression in prior microarray-based assays, Rv2296 haloalkane (M. tuberculosis [5]): 0.1; Magnitude of induction/repression in prior microarray-based assays, Rv2364c era (M. tuberculosis [5]): −0.6; Magnitude of induction/repression in prior microarray-based assays, Rv2703 sigA (M. tuberculosis [5]): 0.4; Magnitude of induction/repression in prior microarray-based assays, Rv2737c recA (M. tuberculosis [5]): −0.1; Magnitude of induction/repression in prior microarray-based assays, Rv2790c ltp1 (M. tuberculosis [5]): −1.1; Magnitude of induction/repression in prior microarray-based assays, Rv2846c efpA (M. tuberculosis [5]): −0.7; Magnitude of induction/repression in prior microarray-based assays, Rv3296 lhr (M. tuberculosis [5]): 0.1; Magnitude of induction/repression in prior microarray-based assays, Rv3417c groEL (M. tuberculosis [5]): 1.6; Magnitude of induction/repression in prior microarray-based assays, Rv3583c (M. tuberculosis [5]): 1.0; Magnitude of induction/repression in prior microarray-based assays, Rv3801c fadD32 (M. tuberculosis [5]): 0.8; genes with drug-dependent induction (M. tuberculosis [4]): CHP, bcpB, gcvB, and groEL; MIC (M. tuberculosis [1]; [7]): 1 µg/mL (≈ 1.72 µM)
